Experimental data from patent publication US10479819B2 (priority 2014, dated 2019).
Starred links: 1 amine or outer side, 2 acyl side, 3 side chain; linkers in the order of their positions; H or OH if unused. Non-standard residues stand in square brackets, D forms with d. Residues, ends and D or L forms follow the SMILES beside them. Groups on a side chain read outwards from the residue. *: point of attachment. C18 diacid = O=C(O)CCCCCCCCCCCCCCCCC(=O)*; γGlu = O=C(O)[C@H](CCC(=O)[*:2])N[*:1]; PEG2 = NCCOCCOCCC(=O)O; Aib = CC(C)(N)C(=O)O

Experiments:
[1] = test system: male C57B1/6J mice; assay: Oral glucose tolerance test in male C57B1/6J mice; assay type: in vivo; settings: 250 μg/kg; for AUC of blood glucose in all four OGTT curve periods (0-480 min) compared with carrier (PBS): P<0.05; for effect on oral glucose tolerance: male C57B1/6J mice
Protocol: 12-16 week-old male C57B1/6J mice (Nanjing University model animal research center) were randomly divided into groups 8 in each group, according to similar blood glucose (assessed by the blood samples obtained from the tail tip). After fasting (for 6 hours), the animals were administrated, and about 4 hours later, initial blood samples (fasting blood glucose level) were taken. Subsequently, the animals were administrated with an oral dose of glucose, and then put back into their cages (t=0). Blood glucose was measured at t=15 minutes, t=30 minutes, t=60 minutes, t=90 minutes and t=120 minutes. And then the animals were administrated with an oral dose of glucose again, and blood glucose was tracked until 8 hours.

[2] = Pharmacokinetic analysis after IV or SC administration in male CD1 mice; settings: for Tmax / half-life: iv
Protocol: Pharmacokinetic parameters of the drugs were calculated by methods of model dependence (for data obtained from IV) and model independence (data obtained from SC).

[3] = test system: DIO mice; assay: Body weight reduction in DIO (obese) mice; assay type: in vivo; settings: 250 μg/kg SC daily, day 11 to day 30, DIO mice
Source text: Forty 25-week-old DIO mice (Nanjing University model animal research center) were randomly divided into five groups (compound 4, 5, 6, 7, and normal saline group), 8 in each group, having no difference in the basis weight of each group.

[4] = target: T1, human GLP-1R (Homo sapiens, UniProt P43220); assay: In vitro activity on GLP-1R, CRE-luciferase HEK-293 cells; assay type: cell-based; settings: for GLP-1R/GCGR: ratio of EC50 GLP-1R to EC50 GCGR
T1 construct: expressed in transfected cells
T1 sequence (P43220 24-463): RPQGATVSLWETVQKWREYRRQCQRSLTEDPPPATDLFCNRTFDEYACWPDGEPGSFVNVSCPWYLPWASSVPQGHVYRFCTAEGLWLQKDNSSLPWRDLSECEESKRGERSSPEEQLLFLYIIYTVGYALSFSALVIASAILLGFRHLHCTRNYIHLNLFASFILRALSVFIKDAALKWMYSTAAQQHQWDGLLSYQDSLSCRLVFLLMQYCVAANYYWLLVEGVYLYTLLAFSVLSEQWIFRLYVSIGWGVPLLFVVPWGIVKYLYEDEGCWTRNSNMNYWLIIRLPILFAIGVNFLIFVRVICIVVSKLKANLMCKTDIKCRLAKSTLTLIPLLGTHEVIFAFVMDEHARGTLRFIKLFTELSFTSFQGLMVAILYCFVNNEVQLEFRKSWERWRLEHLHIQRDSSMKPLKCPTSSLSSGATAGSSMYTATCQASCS
Protocol: 5000 of HEK-293 cells, which are used in CRE-luciferase system and express human GCGR or GLP-1R stably, were inoculated into 384 well plates according to […] DMEM/10% FBS media/well. […] After incubation, […] of luciferase reagent was added directly to each plate and mixed gently for 2 minutes. The plates were placed into an Elmer Perkin plate reader for reading. Concentration curve of the compound was made by drawing software Prism 5, and the EC50 value was calculated.

| Compound | AUC of blood glucose in all four OGTT curve periods (0-480 min) compared with carrier (PBS) [1] | effect on oral glucose tolerance [1] | clinical adverse effect ([2]; mouse, in vivo) | Tmax ([2]; mouse, in vivo) | half-life ([2]; mouse, in vivo) | peak time ([2]; mouse, in vivo, sc) | weight loss [3] | body weight compared with normal saline group ([3]; P<0.05) | GLP-1R/GCGR [4] | clinical adverse effect ([2]; IV or SC route, male CD1 mice) | EC50 [4] |
| --- | --- | --- | --- | --- | --- | --- | --- | --- | --- | --- | --- |
| CCCCCCCCCCCCCCCC(=O)N[C@@H](CCC(=O)NCCOCCOCCC(=O)NCCOCCOCCC(=O)NCCCC[C@H](NC(=O)[C@H](CC(=O)O)NC(=O)[C@H](CO)NC(=O)[C@@H](NC(=O)[C@H](Cc1ccccc1)NC(=O)[C@@H](NC(=O)CNC(=O)[C@H](CCC(N)=O)NC(=O)[C@@H](CO)NC(=O)[C@@H](N)Cc1c[nH]cn1)[C@@H](C)O)[C@@H](C)O)C(=O)N[C@@H](CO)C(=O)N[C@@H](CCCCN)C(=O)N[C@@H](Cc1ccc(O)cc1)C(=O)N[C@@H](CC(C)C)C(=O)N[C@@H](CC(=O)O)C(=O)NC(C)(C)C(=O)N[C@@H](CCCNC(=N)N)C(=O)N[C@@H](CCCNC(=N)N)C(=O)N[C@@H](C)C(=O)N[C@@H](CCC(N)=O)C(=O)N[C@@H](CC(=O)O)C(=O)N[C@@H](Cc1ccccc1)C(=O)N[C@H](C(=O)N[C@@H](CCC(N)=O)C(=O)N[C@@H](Cc1c[nH]c2ccccc12)C(=O)N[C@@H](CC(C)C)C(=O)N[C@@H](CCSC)C(=O)N[C@@H](CC(N)=O)C(=O)N[C@H](C(=O)NCC(=O)NCC(=O)N1CCC[C@H]1C(=O)N[C@@H](CO)C(=O)N[C@@H](CO)C(=O)NCC(=O)N[C@@H](C)C(=O)N1CCC[C@H]1C(=O)N1CCC[C@H]1C(=O)N1CCC[C@H]1C(=O)N[C@@H](CO)C(N)=O)[C@@H](C)O)C(C)C)C(=O)O [Compound 7] | significantly decreased | significantly reduced the oral glucose tolerance | no clinical adverse effect | ~12 h | 4 to 6 h | more than 12 hours | about 20% | significantly lower | – | – | – |
| CSCC[C@H](NC(=O)[C@H](CC(C)C)NC(=O)[C@H](Cc1c[nH]c2ccccc12)NC(=O)[C@H](CCC(N)=O)NC(=O)[C@@H](NC(=O)[C@H](Cc1ccccc1)NC(=O)[C@H](CC(=O)O)NC(=O)[C@H](CCC(N)=O)NC(=O)[C@H](C)NC(=O)[C@H](CCCNC(=N)N)NC(=O)[C@H](CCCNC(=N)N)NC(=O)C(C)(C)NC(=O)[C@H](CC(=O)O)NC(=O)[C@H](CC(C)C)NC(=O)[C@H](CCCCN)NC(=O)[C@H](CCCCNC(=O)CCOCCOCCNC(=O)CCOCCOCCNC(=O)CCCCCCCCCCCCCCCCC(=O)O)NC(=O)[C@H](CO)NC(=O)[C@H](Cc1ccc(O)cc1)NC(=O)[C@H](CC(=O)O)NC(=O)[C@H](CO)NC(=O)[C@@H](NC(=O)[C@H](Cc1ccccc1)NC(=O)[C@@H](NC(=O)CNC(=O)[C@H](CCC(N)=O)NC(=O)[C@@H](CO)NC(=O)[C@@H](N)Cc1c[nH]cn1)[C@@H](C)O)[C@@H](C)O)C(C)C)C(=O)N[C@@H](CC(N)=O)C(=O)N[C@H](C(=O)NCC(=O)NCC(=O)N1CCC[C@H]1C(=O)N[C@@H](CO)C(=O)N[C@@H](CO)C(=O)NCC(=O)N[C@@H](C)C(=O)N1CCC[C@H]1C(=O)N1CCC[C@H]1C(=O)N1CCC[C@H]1C(=O)N[C@@H](CO)C(N)=O)[C@@H](C)O [Compound 16] | – | – | – | – | – | – | – | – | 3 | – | – |
| CC(C)C[C@H](NC(=O)[C@H](CC(C)C)NC(=O)[C@H](Cc1c[nH]c2ccccc12)NC(=O)[C@H](CCC(N)=O)NC(=O)[C@@H](NC(=O)[C@H](Cc1ccccc1)NC(=O)[C@H](CC(=O)O)NC(=O)[C@H](CCC(N)=O)NC(=O)[C@H](C)NC(=O)[C@H](CCCNC(=N)N)NC(=O)[C@H](CCCNC(=N)N)NC(=O)[C@H](CCC(=O)O)NC(=O)[C@H](CC(=O)O)NC(=O)[C@H](CC(C)C)NC(=O)[C@H](Cc1ccc(O)cc1)NC(=O)[C@H](CCCCN)NC(=O)[C@H](CO)NC(=O)[C@H](CCCCNC(=O)CCOCCOCCNC(=O)CCOCCOCCNC(=O)CC[C@H](NC(=O)CCCCCCCCCCCCCCCCC(=O)O)C(=O)O)NC(=O)[C@H](CC(=O)O)NC(=O)[C@H](CO)NC(=O)[C@@H](NC(=O)[C@H](Cc1ccccc1)NC(=O)[C@@H](NC(=O)CNC(=O)[C@H](CCC(N)=O)NC(=O)C(C)(C)NC(=O)[C@@H](N)Cc1c[nH]cn1)[C@@H](C)O)[C@@H](C)O)C(C)C)C(=O)N[C@@H](CC(=O)O)C(=O)NCC(=O)NCC(=O)N1CCC[C@H]1C(=O)N[C@@H](CO)C(=O)N[C@@H](CO)C(=O)NCC(=O)N[C@@H](C)C(=O)N1CCC[C@H]1C(=O)N1CCC[C@H]1C(=O)N1CCC[C@H]1C(=O)N[C@@H](CO)C(N)=O [Compound 20] (H-H[Aib]QGTFTSDK([PEG2-PEG2-γGlu-C18 diacid])SKYLDERRAQDFVQWLLDGGPSSGAPPPS-NH2) | significantly decreased | significantly reduced the oral glucose tolerance | – | ~12 h | 4 to 6 h | – | – | – | 0.18 | no clinical adverse effect | – |
| CCCCCCCCCCCCCCCC(=O)N[C@@H](CCC(=O)NCCOCCOCCC(=O)NCCOCCOCCC(=O)NCCCC[C@H](NC(=O)[C@H](CC(=O)O)NC(=O)[C@H](CO)NC(=O)[C@@H](NC(=O)[C@H](Cc1ccccc1)NC(=O)[C@@H](NC(=O)CNC(=O)[C@H](CCC(N)=O)NC(=O)C(C)(C)NC(=O)[C@@H](N)Cc1c[nH]cn1)[C@@H](C)O)[C@@H](C)O)C(=O)N[C@@H](CO)C(=O)N[C@@H](CCCCN)C(=O)N[C@@H](Cc1ccc(O)cc1)C(=O)N[C@@H](CC(C)C)C(=O)N[C@@H](CC(=O)O)C(=O)NC(C)(C)C(=O)N[C@@H](CCCNC(=N)N)C(=O)N[C@@H](CCCNC(=N)N)C(=O)N[C@@H](C)C(=O)N[C@@H](CCC(N)=O)C(=O)N[C@@H](CC(=O)O)C(=O)N[C@@H](Cc1ccccc1)C(=O)N[C@H](C(=O)N[C@@H](CCC(N)=O)C(=O)N[C@@H](Cc1c[nH]c2ccccc12)C(=O)N[C@@H](CC(C)C)C(=O)N[C@@H](CC(C)C)C(=O)N[C@@H](CC(=O)O)C(=O)NCC(=O)NCC(=O)N1CCC[C@H]1C(=O)N[C@@H](CO)C(=O)N[C@@H](CO)C(=O)NCC(=O)N[C@@H](C)C(=O)N1CCC[C@H]1C(=O)N1CCC[C@H]1C(=O)N1CCC[C@H]1C(=O)N[C@@H](CO)C(N)=O)C(C)C)C(=O)O [Compound 21] | significantly decreased | significantly reduced the oral glucose tolerance | – | ~12 h | 4 to 6 h | – | – | – | 0.23 | no clinical adverse effect | – |
| CC(C)C[C@H](NC(=O)[C@H](CC(C)C)NC(=O)[C@H](Cc1c[nH]c2ccccc12)NC(=O)[C@H](CCC(N)=O)NC(=O)[C@@H](NC(=O)[C@H](Cc1ccccc1)NC(=O)[C@H](CC(=O)O)NC(=O)[C@H](CCC(N)=O)NC(=O)[C@H](C)NC(=O)[C@H](CCCNC(=N)N)NC(=O)[C@H](CCCNC(=N)N)NC(=O)C(C)(C)NC(=O)[C@H](CC(=O)O)NC(=O)[C@H](CC(C)C)NC(=O)[C@H](Cc1ccc(O)cc1)NC(=O)[C@H](CCCCN)NC(=O)[C@H](CO)NC(=O)[C@H](CCCCNC(=O)CCOCCOCCNC(=O)CCOCCOCCNC(=O)CC[C@H](NC(=O)CCCCCCCCCCCCCCCCC(=O)O)C(=O)O)NC(=O)[C@H](CC(=O)O)NC(=O)[C@H](CO)NC(=O)[C@@H](NC(=O)[C@H](Cc1ccccc1)NC(=O)[C@@H](NC(=O)CNC(=O)[C@H](CCC(N)=O)NC(=O)C(C)(C)NC(=O)[C@@H](N)Cc1c[nH]cn1)[C@@H](C)O)[C@@H](C)O)C(C)C)C(=O)N[C@@H](CC(=O)O)C(=O)NCC(=O)NCC(=O)N1CCC[C@H]1C(=O)N[C@@H](CO)C(=O)N[C@@H](CO)C(=O)NCC(=O)N[C@@H](C)C(=O)N1CCC[C@H]1C(=O)N1CCC[C@H]1C(=O)N1CCC[C@H]1C(=O)N[C@@H](CO)C(N)=O [Compound 22] (H-H[Aib]QGTFTSDK([PEG2-PEG2-γGlu-C18 diacid])SKYLD[Aib]RRAQDFVQWLLDGGPSSGAPPPS-NH2) | significantly decreased | significantly reduced the oral glucose tolerance | – | ~12 h | 4 to 6 h | – | – | – | 0.19 | no clinical adverse effect | 60 pM |
| His-Aib-Gln-Gly-Thr-Phe-Thr-Ser-Asp-Lys(PEG2-PEG2-Glu-CO(CH2)14CH3)-Ser-Lys-Tyr-Leu-Asp-Glu-Arg-Arg-Ala-Gln-Asp-Phe-Val-Gln-Trp-Leu-Leu-Asp-Gly-Gly-Pro-Ser-Ser-Gly-Ala-Pro-Pro-Pro-Ser-NH2 [Compound 19] | significantly decreased | significantly reduced the oral glucose tolerance | – | – | – | – | – | – | 0.25 | – | – |
